Literature values as cited in patent US6503745B1, “Cyclopentane and cyclopentene compounds and use for detecting influenza virus” (priority 1998, dated 2003).
Read-outs that look alike come from different tables or passages of the source.

Legend:
[1] = test system: influenza neuraminidase
[2] = test system: influenza; settings: in animals
[3] = test system: influenza; settings: in human volunteers

Row | Compound | binder of influenza neuraminidase [1] | in vivo antiviral activity [2] | in vivo antiviral activity [3]
1 | CC(=O)NC1C(NC(=N)N)C=C(C(=O)O)OC1[C@H](O)[C@H](O)CO (stereo partly shown) [GG167, 2,3-didehydro-2,4-dideoxy-4-guanidinyl-N-acetylneuraminic acid] | potent binder | potent in vivo antiviral activity | potent in vivo antiviral activity
2 | CCC(CC)O[C@@H]1C=C(C(=O)O)C[C@H](N)[C@H]1NC(C)=O [GS 4071, (3R,4R,5S)-4-acetamido-5-amino-3-(1-ethylpropoxy)-1-cyclohexene-1-carboxylic acid] | potent binders | – | –
